This note sets out measurements from ChEMBL document CHEMBL1201862, “PubChem BioAssay data set” (2004).

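Five compound concentrations were applied to cells in 96-well plates for 48 hours; endpoints were derived by simple linear interpolation of the resulting dose-response curve. Here, GI50 denotes the concentration required for 50% inhibition of growth.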 Activity calls are given as the source filed them. No stated cut-off is given here; in the data, active = GI50 up to about 1.1 µM and inactive = higher. A value given as a limit tells only on which side of the number the result lay.

Some test systems named below: MCF7; NCI-H460; IGROV-1; U-251; MDA-MB-435; PC-3; HCT-15; SN12C; CAKI-1; SK-MEL-2; SNB-19; TK-10; SK-MEL-28; ACHN; NCI-H226; MDA-MB-231; HCT-116; LOX IMVI; NCI-H522.
Holding throughout (assay): NCI tumour cell line growth inhibition, 48 h

In the case of `COc1ccc2[nH]c(C(O)(Cc3cccnc3)Cc3cccnc3)cc2c1`, the GI50 with MCF7, in the test on NCI-H460, in the test with IGROV-1, with U-251, with MDA-MB-435 and with PC-3 was > 100 µM (inactive) in each case. Further, the GI50 in the test on HCT-15 was above 100 µM; in the test with SN12C, > 100 µM (inactive); in the test on CAKI-1 it was > 100 µM (inactive); in the test with SK-MEL-2, > 100 µM (inactive); in the test with SNB-19, > 100 µM (inactive); with TK-10 it was > 100 µM (inactive). Besides, the GI50 in the test with SK-MEL-28, in the test with ACHN, in the test on NCI-H226, in the test on MDA-MB-231 and in the test with HCT-116 was > 100 µM (inactive) in each case.

`Oc1c(Cl)cc2cc1-c1cc(cc(Cl)c1O)CCc1c(cc(Cl)c(O)c1Cl)-c1cc(Cl)c(c(Cl)c1O)/C=C\2`: the GI50 in the test with LOX IMVI was 9.44 µM (inactive); in the test on NCI-H460, 4.42 µM (inactive); in the test with IGROV-1, 8.99 µM (inactive); with U-251, 11.6 µM (inactive); with MDA-MB-435, 8.02 µM (inactive); in the test on PC-3, 8.3 µM (inactive). Further, the GI50 was 7.96 µM with HCT-15; 8.81 µM (inactive) in the test on SK-MEL-2; 11.6 µM (inactive) in the test on SNB-19; 7.08 µM (inactive) in the test with SK-MEL-28; 13.7 µM (inactive) in the test with ACHN; 11.5 µM (inactive) in the test on NCI-H226. In the test on HCT-116, the GI50 was 8.11 µM (inactive).

Regarding `COc1ccc(COCCOCc2nc(C#N)c(N)o2)cc1`, the GI50 in the test on LOX IMVI, with MCF7, in the test on NCI-H460, in the test on IGROV-1, in the test with U-251 and in the test on MDA-MB-435 was > 100 µM (inactive) in each case. Moreover, the GI50 in the test on PC-3 was > 100 µM (inactive); with HCT-15 it was above 100 µM; in the test with NCI-H522, 6.79 µM (inactive); in the test with SN12C, > 100 µM (inactive); in the test with CAKI-1, 89.9 µM (inactive); in the test on SK-MEL-2 it was > 100 µM (inactive). In addition, the GI50 in the test with TK-10, in the test with SK-MEL-28, in the test on ACHN, with NCI-H226, in the test on MDA-MB-231 and in the test with HCT-116 was > 100 µM (inactive) in each case.

As for `COc1ccc(Cc2n[nH]c(Nc3ccc(Br)cc3)nc2=O)cc1OC`, the GI50 is 69.5 µM (inactive) with LOX IMVI; 44.6 µM (inactive) with MCF7; > 100 µM (inactive) in the test on NCI-H460; > 100 µM (inactive) in the test on IGROV-1; > 100 µM (inactive) in the test on U-251; 14.2 µM (inactive) in the test with MDA-MB-435. In addition, the GI50 is > 92.5 µM (inactive) in the test on PC-3; above 100 µM with HCT-15; 57.7 µM (inactive) in the test with NCI-H522; > 100 µM (inactive) with SN12C; > 100 µM (inactive) in the test on CAKI-1; 60.1 µM (inactive) in the test with SK-MEL-2. In addition, the GI50 with SNB-19 is > 100 µM (inactive); with TK-10, > 100 µM (inactive); with SK-MEL-28, > 89.9 µM (inactive); in the test on ACHN, > 100 µM (inactive); in the test with NCI-H226, > 100 µM (inactive); with MDA-MB-231, 50.1 µM (inactive). Also, the GI50 in the test with HCT-116 is 64.3 µM (inactive).

In the case of `COc1ccc2c(c1)Oc1cc(O)ccc1[C@@H]2c1ccccc1C(=O)NC(C)c1ccccc1` (some centres not stated), the GI50 with LOX IMVI was 15.9 µM (inactive); with NCI-H460, 12.2 µM (inactive); with IGROV-1, 18.2 µM (inactive); with U-251 it was 15 µM (inactive); in the test with HCT-15 it was 13.7 µM; in the test on NCI-H522, 14.4 µM (inactive). Moreover, the GI50 in the test on SN12C was 14.6 µM (inactive); in the test on CAKI-1 it was 20.6 µM (inactive); in the test with SK-MEL-2 it was 18.7 µM (inactive); in the test with SNB-19, 15.6 µM (inactive); in the test with TK-10, 23.7 µM (inactive); in the test on SK-MEL-28, 15.4 µM (inactive). In addition, the figures for the GI50 in the test with ACHN, with NCI-H226 and in the test on HCT-116 were 15.6 µM (inactive), 18.3 µM (inactive) and 12.2 µM (inactive), respectively.

With `CCN(CC)CC(C(=O)Nc1c(C)cccc1C)/C(C)=N\NC(=O)c1ccncc1` (configuration not stated), the GI50 was > 100 µM (inactive) with LOX IMVI; > 100 µM (inactive) in the test with NCI-H460; > 100 µM (inactive) in the test with IGROV-1; > 100 µM (inactive) in the test on U-251; above 100 µM with HCT-15; > 100 µM (inactive) in the test on NCI-H522. Also, the GI50 with SN12C, in the test on CAKI-1, in the test on SK-MEL-2, in the test on SNB-19, with TK-10 and in the test with SK-MEL-28 was > 100 µM (inactive) throughout. Besides, the GI50 in the test with ACHN, with NCI-H226 and in the test on HCT-116 was > 100 µM (inactive) each time.

With `Cc1ccc(NC(=O)CC/C(CC(=O)C(C)(C)C)=N\NC(=O)C[n+]2ccccc2)cc1C`, the GI50 in the test with LOX IMVI is 99.8 µM (inactive); in the test on NCI-H460, 51.9 µM (inactive); in the test with IGROV-1, > 100 µM (inactive); in the test with U-251 it was 87.9 µM (inactive); in the test on HCT-15, 53 µM; with NCI-H522, > 100 µM (inactive). The GI50 in the test on SN12C, in the test with CAKI-1, with SK-MEL-2, in the test on SNB-19, with TK-10 and with SK-MEL-28 was > 100 µM (inactive) in each case. Also, the GI50 was > 100 µM (inactive) with ACHN, > 100 µM (inactive) in the test with NCI-H226 and 74.5 µM (inactive) with HCT-116.

`COP(=O)(OC)C(NC(=O)C(F)(F)F)(c1ccccc1)C(F)(F)F` (configuration not stated): the GI50 is > 100 µM (inactive) in the test with LOX IMVI; > 100 µM (inactive) in the test on NCI-H460; > 100 µM (inactive) in the test with IGROV-1; > 100 µM (inactive) in the test with U-251; above 100 µM in the test on HCT-15; > 100 µM (inactive) with NCI-H522. Moreover, the GI50 in the test on SN12C, in the test with CAKI-1, in the test on SK-MEL-2, in the test with SNB-19, with TK-10 and with SK-MEL-28 was > 100 µM (inactive) throughout. Moreover, the GI50 in the test with ACHN, in the test on NCI-H226 and in the test with HCT-116 was > 100 µM (inactive) in each case.

For the molecule `O=C1CCCC2=C1CC1=C(CCCC1=O)N2c1ccccc1C(=O)O`, the GI50 with LOX IMVI, in the test with MCF7, in the test on NCI-H460, in the test on IGROV-1, in the test with U-251 and in the test with PC-3 was > 100 µM (inactive) throughout. Also, the GI50 is above 100 µM with HCT-15; > 100 µM (inactive) in the test on SN12C; > 100 µM (inactive) with CAKI-1; > 100 µM (inactive) in the test on SNB-19; > 100 µM (inactive) in the test with TK-10; > 100 µM (inactive) with SK-MEL-28. In addition, the GI50 with ACHN and in the test with NCI-H226 was > 100 µM (inactive) each time.

Turning to `CCOC(=O)/C(C)=C(/O)C(=O)OCC`, the GI50 in the test on LOX IMVI was > 100 µM (inactive); in the test with NCI-H460, > 100 µM (inactive); with IGROV-1 it was > 100 µM (inactive); in the test with U-251 it was > 100 µM (inactive); in the test on HCT-15 it was above 100 µM; with NCI-H522, > 100 µM (inactive). Also, the GI50 with SN12C, with CAKI-1, with SK-MEL-2, in the test with SNB-19, with TK-10 and in the test with SK-MEL-28 was > 100 µM (inactive) throughout. The GI50 in the test on ACHN, in the test with NCI-H226 and in the test on HCT-116 was > 100 µM (inactive) throughout.

For the molecule `c1ccc2c(c1)OC(N1CCCC1)c1cnc(N3CCCC3)nc1-2` (configuration not stated), the GI50 in the test on LOX IMVI is 45.9 µM (inactive); in the test with MCF7, 18.6 µM (inactive); in the test on NCI-H460, 36.7 µM (inactive); in the test on U-251 it was 45.9 µM (inactive); in the test on MDA-MB-435, 49.8 µM (inactive); with PC-3 it was 28.7 µM (inactive). Besides, the GI50 is 29.7 µM in the test with HCT-15; 45.2 µM (inactive) in the test with SN12C; 20.9 µM (inactive) in the test with CAKI-1; 92.5 µM (inactive) with SNB-19; 49.2 µM (inactive) with TK-10; 79.6 µM (inactive) in the test on SK-MEL-28. For the same molecule, the GI50 is 40.6 µM (inactive) in the test with ACHN, 54.2 µM (inactive) with NCI-H226, 41.8 µM (inactive) with MDA-MB-231 and 39.2 µM (inactive) with HCT-116.

`CC(C)(O)C(O)COc1c2c(cc3oc(=O)ccc13)OCO2` (configuration not stated): the GI50 in the test with LOX IMVI was > 100 µM (inactive); in the test with NCI-H460 it was > 100 µM (inactive); in the test with IGROV-1, > 100 µM (inactive); with U-251, > 100 µM (inactive); with HCT-15, above 100 µM; in the test with NCI-H522, > 100 µM (inactive). The GI50 in the test with SN12C, with CAKI-1, in the test with SK-MEL-2, in the test on SNB-19, in the test on TK-10 and in the test with SK-MEL-28 was > 100 µM (inactive) in each case. The GI50 with ACHN, with NCI-H226 and in the test on HCT-116 was > 100 µM (inactive) each time.
